Test results published in patent US8629251B2, “Specific detection and quantification of phosphatidic acid using an Arabidopsis trigalactosyldiacylglycerol-4 (TGD4) protein” (Board of Trustees of Michigan State University, priority 2008, dated 2014).
Where no end group is shown, it is not given here.

Key:
[1] = biological target: T1, Arabidopsis TGD4, DsRED-TGD4-His, full-length TGD4 1-479 (SEQ ID NO: 132) (Arabidopsis thaliana, UniProt Q9M903); test: Liposome association assay, DsRED-TGD4-His; type: binding; details: 40 mol % PtdOH and 60 mol % PtdCho liposomes, FIG. 18C, D
T1 sequence (Q9M903 1-479): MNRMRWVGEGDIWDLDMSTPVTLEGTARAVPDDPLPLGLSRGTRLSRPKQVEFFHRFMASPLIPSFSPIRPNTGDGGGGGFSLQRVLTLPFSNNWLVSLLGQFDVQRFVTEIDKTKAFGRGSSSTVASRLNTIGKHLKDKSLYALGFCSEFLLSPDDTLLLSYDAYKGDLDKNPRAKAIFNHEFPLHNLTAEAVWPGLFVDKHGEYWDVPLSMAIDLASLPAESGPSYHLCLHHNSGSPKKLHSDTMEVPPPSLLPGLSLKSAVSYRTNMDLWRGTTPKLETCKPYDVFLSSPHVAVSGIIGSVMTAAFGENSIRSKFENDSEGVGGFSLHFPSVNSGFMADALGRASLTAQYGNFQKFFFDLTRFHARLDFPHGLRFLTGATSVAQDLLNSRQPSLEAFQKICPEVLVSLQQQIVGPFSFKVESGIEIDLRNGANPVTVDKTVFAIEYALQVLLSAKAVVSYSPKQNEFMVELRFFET
Description: Liposome Association Assay:
(§1) The liposome association assay was adapted from (Awai et al., 2006, Lu and Benning, 2009) with minor modifications. Dioleoyl-PtdCho and PtdOH with different acyl chain lengths and desaturation levels were used for making liposomes. In other liposomes 1-palmitoyl-2-(12-((7-nitro-2-1,3-benzoxadiazol-4-yl)amino)dodecanoyl)-sn-glycero-3-phosphate (NBD-PtdOH; Avanti, Alabaster, Ala.) was used. The lipids were mixed at indicated ratios to give a total lipid amount of 250 μg. The lipids were dried under a stream of nitrogen, resuspended in 0.5 ml TBS buffer with 0.2 M choline chloride and hydrated at 37° C. for 1 hour followed by vigorous vortexing for 2 minutes. The resulting multi-lamellar vesicles were centrifuged at 13,000×g for 10 minutes and then washed once with TBS buffer containing 0.2 M choline chloride. The liposomes were resuspended into 100 μl TBS buffer with 0.2 M choline chloride and incubated with 2 μg purified DsRED-TGD4-His protein and its derivatives. The protein liposome mixture was incubated on ice for 30 minutes followed by centrifugation at 13,000×g for 10 minutes and two washes with 500 μl TBS containing 0.2 M choline chloride. The resulting protein-liposome pellet was resuspended in 20 μl 2× Laemmli buffer (Laemmli, 1970) and processed by SDS-PAGE (Shapiro and Maizel, 1969).

[2] = biological target: T2, DsRED-TGD4-His (Arabidopsis thaliana, UniProt Q9M903); test: Precipitation / stabilizer test of DsRED-TGD4-His; type: physicochemical; details: 5 μg protein with stabilizer, 4° C., 2 hours, 13,000×g pellet by SDS-PAGE
T2 construct: the DsRED protein was fused to the N-terminus of the full-length TGD4 protein; made in house; host or cells: E. coli BL21 (DE3)
T2 sequence (Q9M903 1-479): T1 sequence (Q9M903 1-479)
Description: FIG. 23A: 5 μg DsRED-TGD4-His was incubated with various protein stabilizers at 4° C. for 2 hours followed by centrifugation at 13,000×g for 10 minutes. The pellet was analyzed by SDS-PAGE. TBS: Tris-buffered saline, Glycerol: 20% glycerol; PEG: 20% polyethylene; Pectin: 5% pectin; ChoCl: 1 M choline chloride; Glycine: 1 M glycine; Urea: 1 M urea; BSA: 0.5 mg/ml bovine serum albumin; PBS: phosphate-buffered saline.
FIG. 23B: 5 μg DsRED-TGD4-His was treated with either 2 M sodium chloride or choline chloride as described above.
Lipid binding properties of TGD4 were investigated by producing TGD4 fused to DsRED. The DsRED protein is a red fluorescent protein of the coral Discosoma sp. (Gross et al., 2000, herein incorporated by reference).

[3] = biological target: Arabidopsis TGD2, DsRed fusion of the 25-mer minimal domain (residues 201-225, SEQ ID NO:12), K221A (Arabidopsis thaliana, UniProt Q9LTR2, K221A); test: Liposome-association assay, point mutant K221A of the minimal domain; type: binding; details: PC liposomes; any of the constructs
Description: Some reports have identified that TGD2 PA-binding regions involve basic amino acids and/or tryptophan residues (10). […] Based on sequence similarity of TGD2 to its closely related homologs in plants and green algae, several charged and/or conserved amino acids were picked as potential interesting residues in the 25-mer minimal domain for possibly mediating interactions with PA. An alanine screen was then performed to evaluate these residues within a minimal PA binding region of TGD2 (i.e., for example, SEQ ID NO:12). Point mutations were generated in the 25-mer minimal domain and fused with DsRed to test PA binding by liposome-association assay using 100% PA liposomes.
The liposome association assay was performed as previously reported. (31). […]
(§2) Liposomes (200 μg) were mixed with purified DsRed-TGD2 fusion protein and TBS to make a final 100 μL solution. […] The liposome pellet mixed with sample buffer was analyzed by SDS-PAGE (28). […]
(§3) The protein band was visualized by chemiluminescent detection kit from Sigma. The autoradiography film was scanned, distinct protein bands were quantified using computer software Multi Gauge V3.0 (Fujifilm USA, Valhalla, N.Y.) and resulted data were plotted and analyzed by OriginPro8 (Origin lab corporation, Northampton, Mass.).

[4] = biological target: T3, Arabidopsis TGD2, N-terminally truncated TGD2-dTMD-His (from Gly-119) (Arabidopsis thaliana, UniProt Q9LTR2); test: Liposome binding assay, TGD2-dTMD-His; details: phosphatidylcholine liposomes with or without PA (6:4 wt/wt)
T3 sequence (Q9LTR2 119-381): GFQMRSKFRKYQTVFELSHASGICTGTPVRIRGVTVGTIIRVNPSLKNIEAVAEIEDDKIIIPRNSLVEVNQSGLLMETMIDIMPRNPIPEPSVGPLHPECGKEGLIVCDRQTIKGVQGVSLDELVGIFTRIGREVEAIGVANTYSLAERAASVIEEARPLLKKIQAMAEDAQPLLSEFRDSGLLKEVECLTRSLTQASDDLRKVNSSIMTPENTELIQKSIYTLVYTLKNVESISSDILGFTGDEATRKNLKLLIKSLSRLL
Description: The liposome binding assay was performed as previously reported. Sano et al., (1998) J. Biol. Chem. 273:4783-4789. Lipids (i.e., for example, phosphatidylcholine or a mixture of phosphatidylcholine and PA at 6:4 wt/wt) were incubated in TBS (50 mM Tris/HCl, pH 7/0.1M NaCl) at 37° C. for 1 hour followed by vigorous vortexing for 5 min. The liposomes were precipitated at 20,000×g and washed twice with ice-cold TBS.
Liposomes (200 μg) were mixed with purified TGD2 protein lacking the TMD (10 μg/ml) and TBS to make 100 μl of solution. The mixture was incubated at 30° C. for 30 min and washed twice with ice-cold TBS by centrifugation at 20,000×g at 4° C. The liposome pellet mixed with sample buffer was analyzed by SDS/PAGE. Laemmli, U. K. (1970) Nature 227, 680-685. Immunodetection of the His-tagged protein was accomplished by using the above-mentioned Penta-His antibody at 1:6,000 and the anti-mouse antibody at 1:10,000 dilutions. The BCIP/NBT Kit from Bio-Rad was used for color detection.

[5] = system: DsRed protein (Discosoma sp. red fluorescent protein); test: Liposome-association assay, DsRed control; type: binding; details: FIG. 3B
Description: (§4) The liposome association assay was performed as previously reported. (31). Briefly, lipids (dioleoyl-phosphatidylcholine, DOPC or dioleoyl-PA, DOPA) were incubated in TBS (50 mM Tris-HCl, pH 7; 0.1 M NaCl) at 37° C. for an hour followed by vigorous vortexing for 5 min. The liposomes were precipitated at 20,000 g and washed twice with ice-cold TBS.
(§5) Liposomes (200 μg) were mixed with purified DsRed-TGD2 fusion protein and TBS to make a final 100 μL solution. The mixture was incubated at 30° C. for 30 min and washed twice with ice-cold TBS by centrifugation at 20,000 g at 4° C. The liposome pellet mixed with sample buffer was analyzed by SDS-PAGE (28). Immuno-detection of the His-tagged protein was accomplished using the above mentioned Penta-His antibody at 1:15,000 and the anti mouse antibody at 1:75,000 dilution.
as §3

[6] = biological target: T4, Arabidopsis TGD2, DsRed-TGD2C WT (DR-WT) fusion protein, residues 119-381, SEQ ID NO:107 (Arabidopsis thaliana, UniProt Q9LTR2); test: Liposome-association assay (mixed PA/PC liposomes), DsRed-TGD2C WT; type: binding; details: PC, PA/PC or PA liposomes, FIG. 3B
T4 construct: made in house; host or cells: Escherichia coli BL21 (DE3)
T4 sequence (Q9LTR2 119-381): T3 sequence (Q9LTR2 119-381)
Description: FIG. 2A: Analysis by liposome-association assay. A mixture of dioleoyl-PA and dioleoyl-PC was used where the weight percent of PA was varied from 0-100% (wt/wt), maintaining the total lipid invariant at 250 μg. 1 μg protein was used. P, protein recovered in the absence of lipids.
(§6) In this assay, purified recombinant proteins were incubated with liposomes for 30 min at 30° C. before centrifugation at 20,000 g for 10 min to pellet the liposomes. Proteins bound to the liposomes were found associated with the lipid pellet, whereas non-binding proteins remained in the supernatant. In an effort to determine the optimal concentration of PA required for high specificity binding, a PA/PC liposome mixture containing varying weight fractions of PA was prepared and incubated with DsRed-TGD2CWT or DsRed alone.
as §4, §5, §3

[7] = Liposome-association assay of DsRed-TGD2 fusion proteins; type: binding; details: PA/PC or 100% PA liposomes
Description: as §6, §4, §2, §3

[8] = Protein-lipid overlay assay of DsRED-TGD4 fusion proteins; type: binding
Description: The protein-lipid overlay assay was modified from (Awai et al., 2006, Lu and Benning, 2009). Phosphoinositol-4,5-bisphosphate PIP2) lipid strips were purchased from Echelon Biosciences (Salt Lake City, Utah). Lipids spotted onto membranes were purchased from Avanti Polar Lipids (Alabaster, Al.) as well as Larodan Fine Chemicals (Malmo, Sweden). Lipids (10 nmol) were suspended in 20 μl spotting buffer (250 μl chloroform, 500 μl methanol, 200 μl 50 mM HCl, 2 μl 1% (w/v) Ponseau S (Sigma, St. Louis, Mo.)) and spotted onto Amersham Hybond-C Extra membranes (GE Healthcare, Piscataway, N.J.) followed by drying for 1 hour in a fume hood. The lipid membranes were then blocked in 3% (w/v) bovine serum albumin (BSA) in TBST buffer (TBS with 0.25% (v/v) Tween 20) for 2 hours at room temperature. Purified DsRED-TGD4-His fusion proteins were added at 1 μg/ml final concentration and incubated overnight at 4° C. followed by washing 3 times in TBST. Lipid membranes were then incubated with 1:2000 diluted His antibody (Sigma) in blocking buffer for 2 hours at room temperature followed by 2 washes with TBST. The membranes were processed for immunoblotting as described below.

[9] = Liposome association assay of DsRED-TGD4-His and derivatives; type: binding; details: dioleoyl-PtdOH/dioleoyl-PtdCho liposomes, 0 to 80% PtdOH by weight, FIG. 19
Description: as §1

Sequence of Arabidopsis TGD2, DsRed fusion of the 25-mer minimal domain (residues 201-225, SEQ ID NO:12), K221A (Q9LTR2 201-225 K221A): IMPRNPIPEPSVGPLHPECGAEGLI

Molecule: CCCCCCCCCCCCCCCC(=O)OC[C@H](COP(=O)(O)O)OC(=O)CCCCCCCCCCCNc1ccc([N+](=O)[O-])c2nonc12 [1-palmitoyl-2-(12-((7-nitro-2-1,3-benzoxadiazol-4-yl)amino)dodecanoyl)-sn-glycero-3-phosphate]
- binding to PtdOH species in liposomes [1]: did not bind

Molecule: C[N+](C)(C)CCO.[Cl-] [Choline chloride, choline chloride]
- stabilization of DsRED-TGD4-His against precipitation [2]: minimize precipitation
- stabilization of DsRED-TGD4-His against precipitation ([2]; listed as choline chloride): stabilized DsRED-TGD4-His

Molecule: [Cl-].[Na+] [NaCl, sodium chloride]
- stabilization of DsRED-TGD4-His against precipitation [2]: not able to stabilize DsRED-TGD4-His

Molecule: CCCCCCCC/C=C\CCCCCCCC(=O)OC[C@H](COP(=O)([O-])OCC[N+](C)(C)C)OC(=O)CCCCCCC/C=C\CCCCCCCC [PC, phosphatidylcholine]
- PC-liposome binding [3]: No detectable PC-liposome binding
- liposome binding [4]: did not bind
- binding to PC or PA [5]: does not display binding
- binding to PA or PC [6]: no interaction

Molecule: CCCCCCCCCCCCCCCC(=O)OC[C@H](COP(=O)(O)O)OC(=O)CCCCCCCCCCCCCCC [dipalmitoyl PtdOH, dipalmitoyl phosphatidic acid]
- binding to PtdOH species in liposomes [1]: bind

Molecule: CCCCCCCCCCCCCCCCCC(=O)OC[C@H](COP(=O)(O)O)OC(=O)CCCCCCCCCCCCCCCCC [distearoyl PtdOH, distearoyl phosphatidic acid]
- binding to PtdOH species in liposomes [1]: appeared to be stronger

Molecule: DR-25: DsRed fused to the TGD2 minimal PA binding domain, residues 201-225 (SEQ ID NO: 12) (IMPRNPIPEPSVGPLHPECGKEGLI; also: fused to DsRed, end not given here; UniProt Q9LTR2 201-225, looked up, fragment)
- PA binding in liposome-association assay ([7]; listed as 25-amino-acid segment): necessary and sufficient for PtdOH binding
- PA binding in liposome-association assay ([7]; listed as region between residues 201 and 225 (SEQ ID NO:12)): much less overall binding

B1: DsRED-His: DsRED-His protein itself, control without TGD4 (protein, UniProt Q9U6Y8 1-225, looked up)
Red fluorescent protein …: MRSSKNVIKEFMRFKVRMEGTVNGHEFEIEGEGEGRPYEGHNTVKLKVTKGGPLPFAWDILSPQFQYGSKVYVKHPADIPDYKKLSFPEGFKWERVMNFEDGGVVTVTQDSSLQDGCFIYKVKFIGVNFPSDGPVMQKKTMGWEASTERLYPRDGVLKGEIHKALKLKDGGHYLVEFKSIYMAKKPVQLPGYYYVDSKLDITSHNEDYTIVEQYERTEGRHHLFL
modifications: His-tag
notes: DsRED-His protein itself, control without TGD4
- lipid binding in overlay, phospholipids ([8]; commercially available membranes, FIG. 18A): not observed to bind to any of the lipids on either membrane tested
- lipid binding in overlay, plant/chloroplast lipids ([8]; lipids manually spotted onto membranes, FIG. 18B): not observed to bind to any of the lipids on either membrane tested
- PtdOH binding affinity of TGD4 derivatives [9]: Except for DsRED-His alone, tested recombinant fusion proteins bound to PtdOH-containing liposomes
